In patent US7638518B2, “Substituted pyrazole kinase inhibitors” (Janssen Pharmaceutica, priority 2006, dated 2009):
pIC50: −log10 of the molar value.

Columns and labels:
[1] = biological target: T1, VEGFR2 (Rattus norvegicus, UniProt O08775); experiment: VEGFR2 kinase screening assay (33P-ATP FlashPlate); assay type: biochemical; conditions: 10 μM ATP, rat VEGF-R2 kinase domain, 1 hr at 30° C.
T1 construct: polyhistidine (N)

[2] = biological target: T2, Aurora-A (Mus musculus, UniProt P97477); experiment: Aurora-A kinase screening assay (33P-ATP FlashPlate); assay type: biochemical; conditions: 10 μM ATP, murine full length Aurora-A, 1 hr at 30° C.
T2 construct: followed by the full length protein encoding the murine Aurora-A; polyhistidine (N); made in house; host or cells: sf9 insect cells
T2 sequence (P97477 1-395): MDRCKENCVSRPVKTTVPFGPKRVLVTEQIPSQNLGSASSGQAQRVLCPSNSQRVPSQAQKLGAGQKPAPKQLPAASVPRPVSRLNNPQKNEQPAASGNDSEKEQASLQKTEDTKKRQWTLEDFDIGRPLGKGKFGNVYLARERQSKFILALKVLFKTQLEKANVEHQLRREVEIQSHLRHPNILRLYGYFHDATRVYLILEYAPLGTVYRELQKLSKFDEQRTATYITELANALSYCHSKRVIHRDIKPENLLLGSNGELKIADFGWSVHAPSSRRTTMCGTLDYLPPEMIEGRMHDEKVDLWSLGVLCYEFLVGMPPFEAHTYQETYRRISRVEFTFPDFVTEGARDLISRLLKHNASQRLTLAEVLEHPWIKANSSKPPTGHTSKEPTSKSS

[3] = test system: HCT-116 colon carcinoma; experiment: Cell proliferation inhibition assay (14C-thymidine incorporation), HCT-116; assay type: cell-based; conditions: Homo sapiens, HCT-116 cells
Description: (§1) The ability of a test compound to inhibit unregulated cell proliferation may be determined by measuring incorporation of ^14C-labelled thymidine into newly synthesized DNA within cell lines derived from carcinomas originating from several tissues. Accordingly, the anti-proliferative effect of a compound on cells with a variety of phenotypes may be determined.
(§2) Carcinoma cell lines include those such as HeLa cervical adenocarcinoma (American Type Culture Collection (ATCC), Virginia, Cat. #CCL-2), A375 malignant melanoma (ATCC CRL-1619), and HCT-116 colon carcinoma (CCL-247).
(§3) The carcinoma cells are trypsinized and counted. The cells (3000-8000 count) are added to each well of a 96-well CytoStar tissue culture treated scintillating microplate (Amersham #RPNQ0160) in complete medium (100 μL) and the plate is then incubated in complete medium for 24 hrs at 37° C. in an inert atmosphere containing 5% CO2. Test compound (1 μL) in 100% DMSO is added to the plate test-wells with DMSO only added to control-wells. The plate is incubated in complete medium for a second 24 hr period at 37° C. in an atmosphere containing 5% CO2.
(§4) An aliquot of a solution of Methyl ^14C-thymidine (56 mC/mmol) (NEN #NEC568 or Amersham #CFA532) and complete medium (20 uL to provide 0.2 μCi/well) is then added to each well and the plate is incubated for a third 24 hr period at 37° C. in an atmosphere containing 5% CO2. The plate contents are then discarded, the plate is washed twice with PBS (200 μL) and then PBS (200 μL) is added to each well. The plate is sealed and the degree of methyl ^14C-thymidine incorporation is quantified on a Packard Top Count.
(§5) A maximum and minimum signal for the assay was determined on each plate. The percent inhibition of a test compound was calculated according to the formula: […]
(§6) For a series of test concentrations, the IC50 was derived by graphing percent inhibition against the log of the concentrations tested for a given compound with results shown in Table 3.

[4] = test system: HeLa cervical adenocarcinoma; experiment: Cell proliferation inhibition assay (14C-thymidine incorporation), HeLa; assay type: cell-based; conditions: Homo sapiens, HeLa cells
Description: as §1, §2, §3, §4, §5, §6

[5] = test system: A375 malignant melanoma; experiment: Cell proliferation inhibition assay (14C-thymidine incorporation), A375; assay type: cell-based; conditions: Homo sapiens, A-375, A375 cells
Description: as §1, §2, §3, §4, §5, §6

[6] = biological target: T3, HER2 (Homo sapiens, UniProt P04626); experiment: HER2 kinase screening assay (33P-ATP FlashPlate); assay type: biochemical; conditions: 10 μM ATP, biotin-poly(GT) 4:1 substrate, 1 hr at 30° C.
T3 construct: GST (Glutathione-S-Transferase) (N); HIS6 (N); Thrombin cleavage site (N); purchased Proqinase, Freiburg, Germany
T3 sequence (P04626 679-1255): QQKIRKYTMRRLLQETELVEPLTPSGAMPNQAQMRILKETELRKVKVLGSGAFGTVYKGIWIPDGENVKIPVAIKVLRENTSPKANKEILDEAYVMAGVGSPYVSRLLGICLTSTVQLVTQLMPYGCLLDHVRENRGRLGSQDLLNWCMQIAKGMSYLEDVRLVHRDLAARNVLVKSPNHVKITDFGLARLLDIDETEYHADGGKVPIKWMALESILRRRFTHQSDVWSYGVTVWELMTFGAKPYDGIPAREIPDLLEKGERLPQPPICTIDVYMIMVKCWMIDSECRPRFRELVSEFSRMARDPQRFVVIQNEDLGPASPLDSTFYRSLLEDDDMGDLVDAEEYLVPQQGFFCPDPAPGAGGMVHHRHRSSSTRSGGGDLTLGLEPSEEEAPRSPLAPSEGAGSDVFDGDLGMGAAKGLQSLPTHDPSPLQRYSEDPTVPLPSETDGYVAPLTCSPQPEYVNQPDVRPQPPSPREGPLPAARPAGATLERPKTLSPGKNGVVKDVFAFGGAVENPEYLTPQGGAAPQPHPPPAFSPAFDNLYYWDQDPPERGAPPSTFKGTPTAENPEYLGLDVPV
Protocol: (§7) A kinase reaction mixture was prepared containing 50 mM Tris-HCl pH=8, 10 mM MgCl2, 0.1 mM […], 1 mM DTT, 10 μM ATP, 0.025 μM biotinylated histone-H1 peptide substrate and 0.2 μCuries per well ^33P-γ-ATP (2000-3000 Ci/mmol). 70 μL of the kinase reaction mixture was dispensed into the well of a streptavidin coated FlashPlate™ (Cat. # SMP103, NEN, Boston, Mass.).
(§8) Test compound stock in 100% DMSO (1 μL) was added to the wells resulting in a final concentration of 1% DMSO in the reaction with a 100 μL final reaction volume. Each enzyme was diluted in 50 mM Tris-HCl pH=8.0, 0.1% BSA and 30 μL was added to each well to initiate the reaction. The reaction was incubated for one hour at 30° C. At the end of the 1 hr incubation, the reaction was terminated by aspirating the mixture from the plate and washing the wells twice with PBS containing 100 mM EDTA. The biotinylated peptide substrate became immobilized on the Flashplate™ and the incorporation of ^33P-γ-ATP was measured by reading the plate on a scintillation counter. Inhibition of the enzymatic activity was measured by observing a reduced amount of ^33P-γ-ATP incorporated into the immobilized peptide.
The HER2 construct consisted of a fusion of GST (Glutathione-S-Transferase), HIS6 Thrombin and the nucleotides encoding amino acids 679 to 1255 of HER-2 (Accession number M11730) (Proqinase, Freiburg, Germany). The assay used 200 ng of the N-terminal biotinylated peptide biotin-poly(GT) 4:1 (HER2) per well.
(§9) Aurora-A is a fusion protein containing a polyhistidine tag at the N terminus followed by the full length protein encoding the murine Aurora-A (Accession number GB BC014711) expressed and purified from sf9 insect cells. The assay used 400 ng of the N-terminal biotinylated peptide biotin-[…]-amide (Aurora-A) per well. A maximum and minimum signal for the assay was determined on each plate. The percent inhibition of a test compound was calculated according to the formula: […]
(§10) For a series of test concentrations, the IC50 was derived by graphing percent inhibition against the log of the concentrations tested for a given compound with results shown in Table 1.

[7] = biological target: T4, CDK1 (Homo sapiens, UniProt P06493); experiment: CDK-1 kinase screening assay (33P-ATP FlashPlate); assay type: biochemical; conditions: 10 μM ATP, biotinylated histone-H1 peptide substrate, 1 hr at 30° C.
T4 construct: purchased New England Biolabs, Beverly, Mass; 6020; host or cells: insect cells
T4 sequence (P06493 whole entry): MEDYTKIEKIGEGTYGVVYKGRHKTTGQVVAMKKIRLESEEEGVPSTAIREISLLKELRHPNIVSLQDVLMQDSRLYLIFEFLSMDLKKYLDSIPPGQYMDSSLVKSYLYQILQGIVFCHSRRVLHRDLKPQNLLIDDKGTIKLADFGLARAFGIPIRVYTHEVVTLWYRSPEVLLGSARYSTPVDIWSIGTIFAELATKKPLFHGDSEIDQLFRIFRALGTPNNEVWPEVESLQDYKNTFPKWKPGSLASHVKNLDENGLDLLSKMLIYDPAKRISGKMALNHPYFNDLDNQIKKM
T4 sequence (P14635 whole entry partner): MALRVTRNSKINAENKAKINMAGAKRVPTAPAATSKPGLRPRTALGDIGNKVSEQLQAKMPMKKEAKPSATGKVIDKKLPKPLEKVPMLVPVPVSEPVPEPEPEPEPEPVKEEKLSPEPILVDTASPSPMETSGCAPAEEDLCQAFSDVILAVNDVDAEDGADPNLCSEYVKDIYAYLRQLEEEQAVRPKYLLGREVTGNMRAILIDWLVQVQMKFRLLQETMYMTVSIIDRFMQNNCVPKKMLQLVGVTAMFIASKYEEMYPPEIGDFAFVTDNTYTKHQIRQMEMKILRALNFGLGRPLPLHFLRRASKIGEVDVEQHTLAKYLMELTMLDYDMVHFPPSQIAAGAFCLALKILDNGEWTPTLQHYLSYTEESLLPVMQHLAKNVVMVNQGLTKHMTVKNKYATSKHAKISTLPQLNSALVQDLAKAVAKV
Protocol: as §7, §8
The CDK1 enzyme was isolated from insect cells expressing both the human CDK1 catalytic subunit (Accession number NM_001786) and its positive regulatory subunit cyclin B (New England Biolabs, Beverly, Mass.; Cat. # 6020). The assay used 30 ng of the N-terminal biotinylated peptide biotin-[…]-amide (Cyclin dependent kinase 1) per well.
as §9, §10

T1 sequence (O08775 786-1343): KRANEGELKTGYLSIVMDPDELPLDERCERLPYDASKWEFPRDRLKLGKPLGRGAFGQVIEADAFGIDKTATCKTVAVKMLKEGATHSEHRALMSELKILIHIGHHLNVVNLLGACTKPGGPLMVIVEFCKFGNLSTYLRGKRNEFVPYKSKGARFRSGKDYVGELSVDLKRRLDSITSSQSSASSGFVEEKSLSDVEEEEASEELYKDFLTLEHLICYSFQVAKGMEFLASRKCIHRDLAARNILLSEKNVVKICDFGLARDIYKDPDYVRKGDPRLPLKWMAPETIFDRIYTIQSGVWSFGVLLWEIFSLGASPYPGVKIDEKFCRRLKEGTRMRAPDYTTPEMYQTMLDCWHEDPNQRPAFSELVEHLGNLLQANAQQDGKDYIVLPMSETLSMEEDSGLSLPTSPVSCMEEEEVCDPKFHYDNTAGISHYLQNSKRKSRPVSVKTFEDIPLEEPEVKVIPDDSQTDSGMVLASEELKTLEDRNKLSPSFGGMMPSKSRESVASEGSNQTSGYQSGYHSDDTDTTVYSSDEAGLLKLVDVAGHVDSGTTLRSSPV

SMILES	pIC50 [1]	pIC50 [2]	pIC50 [3]	pIC50 [4]	pIC50 [5]	pIC50 [6]	pIC50 [7]
CCNCc1cncc(C=Cc2c[nH]nc2-c2nc3ccc(OC)cc3[nH]2)c1 [Cpd 1, ethyl-(5-{2-[3-(6-methoxy-1H-benzoimidazol-2-yl)-1H-pyrazol-4-yl]-vinyl}-pyridin-3-ylmethyl)-amine]	6.09	6.23	6.73	6.21	6.26	5.52	8.34
COc1ccc2nc(-c3n[nH]cc3C=Cc3cccnc3)[nH]c2c1 [Cpd 2, 6-methoxy-2-[4-(2-pyridin-3-yl-vinyl)-1H-pyrazol-3-yl]-1H-benzoimidazole]	6.01	6.29	5.67	5.75	5.60	–	7.48
COc1ccc2nc(-c3n[nH]cc3C=Cc3ccc(N)nc3)[nH]c2c1 [Cpd 3, 5-{2-[3-(6-Methoxy-1H-benzoimidazol-2-yl)-1H-pyrazol-4-yl]-vinyl}-pyridin-2-ylamine]	6.20	6.20	5.98	6.00	5.99	5.17	7.64
COc1ccc2nc(-c3n[nH]cc3C=Cc3cnccc3C)[nH]c2c1 [Cpd 5, 6-methoxy-2-{4-[2-(4-methyl-pyridin-3-yl)-vinyl]-1H-pyrazol-3-yl}-1H-benzoimidazole]	–	6.26	5.50	5.56	5.37	–	6.80
COc1ccc2nc(-c3n[nH]cc3C=Cc3cncc4ccccc34)[nH]c2c1 [Cpd 6, 4-{2-[3-(6-methoxy-1H-benzoimidazol-2-yl)-1H-pyrazol-4-yl]-vinyl}-isoquinoline]	6.21	–	5.57	5.55	5.53	–	6.83
COc1ccc2nc(-c3n[nH]cc3C=Cc3cncc(C#N)c3)[nH]c2c1 [Cpd 7, 5-{2-[3-(6-methoxy-1H-benzoimidazol-2-yl)-1H-pyrazol-4-yl]-vinyl}-nicotinonitrile]	5.76	5.38	–	–	–	–	< 6.00
CN1CCN(c2ccc3nc(-c4n[nH]cc4C=Cc4cccnc4)[nH]c3c2)CC1 [Cpd 8, 6-(4-methyl-piperazin-1-yl)-2-[4-(2-pyridin-3-yl-vinyl)-1H-pyrazol-3-yl]-1H-benzoimidazole]	6.54	< 5.00	6.71	6.33	6.06	5.03	7.54
COC(=O)c1cncc(C=Cc2c[nH]nc2-c2nc3ccc(OC)cc3[nH]2)c1 [Cpd 9, 5-{2-[3-(6-methoxy-1H-benzoimidazol-2-yl)-1H-pyrazol-4-yl]-vinyl}-nicotinic acid methyl ester]	5.89	< 4.00	5.50	5.36	5.51	–	6.05
COc1cncc(C=Cc2c[nH]nc2-c2nc3ccc(OC)cc3[nH]2)c1 [Cpd 10, 6-methoxy-2-{4-[2-(5-methoxy-pyridin-3-yl)-vinyl]-1H-pyrazol-3-yl}-1H-benzoimidazole]	6.19	6.40	6.13	6.05	6.04	4.92	7.33
CCNC(=O)c1cncc(C=Cc2c[nH]nc2-c2nc3ccc(OC)cc3[nH]2)c1 [Cpd 11, N-ethyl-5-{2-[3-(6-methoxy-1H-benzoimidazol-2-yl)-1H-pyrazol-4-yl]-vinyl}-nicotinamide]	5.87	< 4.00	5.61	5.43	5.44	4.44	6.96
